Measured values from US20240415840A1, “BICYCLIC AMINES AS CDK2 INHIBITORS” (Incyte Corporation, priority 2023, published 2024).
“And” between values parts separate entries of the source, which are not always exact repeats. Equal values may be shown once. Read-outs that look alike come from different tables or passages of the source. Blank lines part the entries; values can stand above or below the compound they belong to.

Key:
CDK2/Cyclin E1 = target: T1, CDK2/Cyclin E1 (Homo sapiens, UniProt P24941); assay: CDK2/Cyclin E1 HTRF enzyme activity assay; format: biochemical; conditions: 1 mM ATP
T1 construct: enzyme activity assays utilize full-length human CDK2; GST (N); purchased Carna 04-165; host or cells: baculovirus expression system
Procedure: CDK2/Cyclin E1 enzyme activity assays utilize full-length human CDK2 co-expressed as N-terminal GST-tagged protein with FLAG-Cyclin E1 in a baculovirus expression system (Carna Product Number 04-165). Assays were conducted in white 384-well polystyrene plates in a final reaction volume of 8 μL. CDK2/Cyclin E1 (0.25 nM) was incubated with the compounds of the Examples (40 nL serially diluted in DMSO) in the presence of ATP (50 μM or 1 mM) and 50 nM ULight™-labeled eIF4E-binding protein 1 (THR37/46) peptide (PerkinElmer) in assay buffer (containing 50 mM HEPES pH 7.5, 1 mM EGTA, 10 mM MgCl2, 2 mM DTT, 0.05 mg/mL BSA, and 0.01% Tween 20) for 60 minutes at room temperature. The reactions were stopped by the addition of EDTA and Europium-labeled anti-phospho-4E-BP1 antibody (PerkinElmer), for a final concentration of 15 mM and 1.5 nM, respectively. HTRF signals were read after 1 hour at room temperature on a PHERAstar FS plate reader (BMG Labtech). Data was analyzed with Genedata Screener software using a three or four parameter dose response curve to determine IC50 for each compound.

BCRP = target: T2, BCRP (Homo sapiens, UniProt Q9UNQ0); assay: Efflux transporter substrate assessment (Caco-2 studies), BCRP; format: in vitro ADME
T2 construct: in vitro permeability studies using Caco-2 cells; endogenous in cells; host or cells: Caco-2 cells
T2 sequence (Q9UNQ0 1-655): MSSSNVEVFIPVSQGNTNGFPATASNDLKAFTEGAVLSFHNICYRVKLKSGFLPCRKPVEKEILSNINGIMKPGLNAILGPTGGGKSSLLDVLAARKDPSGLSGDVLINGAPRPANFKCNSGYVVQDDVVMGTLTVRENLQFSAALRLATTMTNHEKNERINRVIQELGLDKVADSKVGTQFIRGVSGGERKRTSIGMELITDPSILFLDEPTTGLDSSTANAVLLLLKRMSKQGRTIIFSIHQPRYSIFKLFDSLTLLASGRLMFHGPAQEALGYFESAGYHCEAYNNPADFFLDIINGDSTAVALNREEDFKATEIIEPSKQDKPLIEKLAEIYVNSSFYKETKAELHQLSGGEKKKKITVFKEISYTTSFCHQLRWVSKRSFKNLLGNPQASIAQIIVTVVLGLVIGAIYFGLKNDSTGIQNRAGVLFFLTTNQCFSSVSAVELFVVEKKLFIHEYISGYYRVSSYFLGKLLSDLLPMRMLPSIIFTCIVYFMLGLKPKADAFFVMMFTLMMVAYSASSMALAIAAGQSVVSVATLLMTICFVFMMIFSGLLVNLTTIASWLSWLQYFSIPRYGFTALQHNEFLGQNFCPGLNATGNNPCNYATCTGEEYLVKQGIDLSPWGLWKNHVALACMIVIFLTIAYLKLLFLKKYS

P-gp = target: T3, P-gp (Homo sapiens, UniProt P08183); assay: Efflux transporter substrate assessment (Caco-2 studies), P-gp; format: in vitro ADME
T3 construct: in vitro permeability studies using Caco-2 cells; endogenous in cells; host or cells: Caco-2 cells

[1] = In vitro permeability studies using Caco-2 cells; format: in vitro ADME; conditions: human, A-B
Caco-2 cells = assay: In vitro permeability studies using Caco-2 cells; format: in vitro ADME
[2] = In vivo rat CNS protocol: brain, CSF and plasma concentrations after IV dosing
Procedure: The brain, CSF, and plasma concentrations of the compound of Example 1 (8-isopropoxy-7-(1H-pyrazol-4-yl)-N-(tetrahydro-2H-pyran-4-yl)-[1,2,4]triazolo[1,5-c]pyrimidin-2-amine) were determined in rats after IV dosing. The compound of Example 1 was formulated in 10% dimethylacetamide in acidified saline. Male rats (n=4) were given an IV bolus of the compound of Example 1 at 2.0 mg/kg, followed by an IV infusion at 1.2 mg/kg/h for 4 hours. Blood samples were collected at 2 hours and 4 hours in tubes containing EDTA as anticoagulant and centrifuged to obtain plasma. At 4 hours, brain and CSF samples were also collected. The CSF samples were mixed with blank rat plasma (1:1 v/v) to minimize adsorption of the compound of Example 1 to the collection device. Brain, CSF, and plasma samples were frozen and concentrations of the compound of Example 1 were determined by LC-MS/MS.

[3] = In vitro rat plasma unbound fraction; format: in vitro ADME
[4] = male rats (n=4), IV infusion, 4 h, mean ± SD

T3 sequence (P08183 whole entry): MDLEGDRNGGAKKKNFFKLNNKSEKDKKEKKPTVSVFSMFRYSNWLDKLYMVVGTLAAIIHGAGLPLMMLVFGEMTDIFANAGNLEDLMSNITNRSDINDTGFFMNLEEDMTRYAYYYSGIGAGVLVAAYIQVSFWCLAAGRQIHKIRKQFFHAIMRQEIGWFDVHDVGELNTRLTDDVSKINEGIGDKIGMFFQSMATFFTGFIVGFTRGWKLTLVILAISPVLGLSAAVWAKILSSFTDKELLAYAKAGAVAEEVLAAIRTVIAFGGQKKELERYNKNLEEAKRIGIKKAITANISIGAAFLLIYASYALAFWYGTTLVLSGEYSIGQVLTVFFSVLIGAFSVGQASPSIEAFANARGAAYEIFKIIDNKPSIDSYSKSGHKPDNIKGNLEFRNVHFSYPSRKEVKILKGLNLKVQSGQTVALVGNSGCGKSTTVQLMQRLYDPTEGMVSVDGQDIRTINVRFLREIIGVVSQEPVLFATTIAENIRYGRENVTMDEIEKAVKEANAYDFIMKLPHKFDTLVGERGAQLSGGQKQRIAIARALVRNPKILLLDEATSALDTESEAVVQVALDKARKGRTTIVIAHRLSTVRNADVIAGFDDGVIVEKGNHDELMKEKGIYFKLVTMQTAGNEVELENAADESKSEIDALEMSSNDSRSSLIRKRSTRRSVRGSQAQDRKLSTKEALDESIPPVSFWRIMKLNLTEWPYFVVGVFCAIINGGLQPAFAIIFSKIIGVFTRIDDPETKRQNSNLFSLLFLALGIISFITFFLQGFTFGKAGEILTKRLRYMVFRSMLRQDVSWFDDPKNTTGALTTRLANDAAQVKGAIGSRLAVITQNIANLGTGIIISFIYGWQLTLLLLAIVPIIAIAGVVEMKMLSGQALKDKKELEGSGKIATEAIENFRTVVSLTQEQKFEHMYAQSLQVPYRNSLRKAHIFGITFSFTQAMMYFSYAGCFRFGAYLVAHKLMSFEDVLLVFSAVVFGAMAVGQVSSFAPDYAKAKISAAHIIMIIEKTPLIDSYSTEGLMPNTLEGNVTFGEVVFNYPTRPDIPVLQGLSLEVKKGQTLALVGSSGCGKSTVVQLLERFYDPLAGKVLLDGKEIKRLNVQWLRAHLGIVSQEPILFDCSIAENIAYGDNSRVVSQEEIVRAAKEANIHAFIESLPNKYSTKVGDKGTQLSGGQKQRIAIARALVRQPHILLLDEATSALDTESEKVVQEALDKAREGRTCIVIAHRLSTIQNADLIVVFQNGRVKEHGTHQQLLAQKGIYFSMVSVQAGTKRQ

IC50 (CDK2/Cyclin E1): ≤ 10 nM
Structure (SMILES): CC(Oc1c(-c2cn[nH]c2)ncn2nc(NC3CCOCC3)nc12)C(F)(F)F (single isomer, unassigned) [Example 7]

IC50 (CDK2/Cyclin E1): ≤ 10 nM
Structure (SMILES): CC(Oc1c(-c2cn[nH]c2)ccn2nc(NC3CCOCC3)nc12)C(F)F (single isomer, unassigned) [Example 6]

IC50 (CDK2/Cyclin E1): ≤ 10 nM
Structure (SMILES): CC(Oc1c(-c2cn[nH]c2)ccn2nc(NC3CCOCC3)nc12)C(F)(F)F (single isomer, unassigned) [Example 4]

IC50 (CDK2/Cyclin E1): ≤ 10 nM
Structure (SMILES): CC(Oc1c(-c2cn[nH]c2)ncn2nc(NC3CCOCC3)nc12)C(F)F (single isomer, unassigned) [Example 10]

IC50 (CDK2/Cyclin E1): ≤ 10 nM
Structure (SMILES): CC(C)Oc1c(-c2cn[nH]c2)ccn2nc(NC3CCOCC3)nc12 [Example 2, 8-Isopropoxy-7-(1H-pyrazol-4-yl)-N-(tetrahydro-2H-pyran-4-yl)-[1,2,4]triazolo[1,5-a]pyridin-2-amine]

IC50 (CDK2/Cyclin E1): ≤ 10 nM
Structure (SMILES): CC(Oc1c(-c2cn[nH]c2)ncn2nc(NC3CCOCC3)nc12)C(F)F (single isomer, unassigned) [Example 9]

substrate of BCRP efflux transporter (BCRP): not a substrate
IC50 (CDK2/Cyclin E1): ≤ 10 nM
substrate of P-gp efflux transporter (P-gp): not a substrate
Papp A→B [1]: 16 ×10⁻⁶ cm/s
Caco-2 permeability (in words) (Caco-2 cells): highly permeable
Brain/Plasma (%) ([2]; 4 h, individual rats 1001-1004): 60% and 89% and 73%
CSF/unbound plasma concentration (%) ([2]; 4 h, individual rats 1001-1004): 37% and 42% and 38%
Plasma free (unbound) concentration, 4 h ([2]; calculated using rat plasma in vitro unbound fraction, 4 h, individual rats 1001-1004): 1.45 µM and 1.22 µM and 1.70 µM
Plasma total concentration, 4 h, mean ([2]; male rats (n=4), IV bolus 2.0 mg/kg then IV infusion 1.2 mg/kg/h for 4 h, 4 h, mean ± SD): 2.41 ± 0.46 µM
Brain concentration, 4 h, mean [2, 4]: 1740 ± 370 nM
CSF concentration, 4 h, mean [2, 4]: 0.579 ± 0.062 µM
Plasma total concentration, 2 h ([2]; male rats, IV bolus 2.0 mg/kg then IV infusion 1.2 mg/kg/h for 4 h, 2 h, individual rats 1001-1004): 1.44 µM and 1.41 µM and 1.71 µM
Plasma total concentration, 4 h ([2]; male rats, IV bolus 2.0 mg/kg then IV infusion 1.2 mg/kg/h for 4 h, 4 h, individual rats 1001-1004): 2.55 µM and 2.14 µM and 2.98 µM
concentration at 4 h ([2]; male rats, IV infusion, 4 h, individual rats 1001-1004, read-out: Brain concentration, 4 h): 1520 nM and 1910 nM and 2170 nM
concentration at 4 h ([2]; male rats, IV infusion, 4 h, individual rats 1001-1004, read-out: CSF concentration, 4 h): 541 nM and 517 nM and 653 nM
Kp at 4 h ([2]; male, rat, CSF / unbound plasma, intravenous, 4 h, individual rats 1001-1004, read-out: CSF/unbound plasma concentration (%)): 0.54
Kp at 4 h ([2]; male, rat, CSF / unbound plasma, intravenous, 4 h, mean, read-out: CSF/unbound plasma concentration (%), mean): 0.43
concentration at 4 h ([2]; male, rat, CSF, iv, male rats (n=4), IV infusion, 4 h, mean ± SD, read-out: CSF concentration, 4 h, mean): 579 ± 62 nM
concentration at 4 h ([2]; male, rat, CSF, iv, male rats, IV infusion, 4 h, individual rats 1001-1004, read-out: CSF concentration, 4 h): 604 nM
Kp at 4 h ([2]; male, rat, brain / plasma, intravenous, 4 h, individual rats 1001-1004, read-out: Brain/Plasma (%)): 0.7
Kp at 4 h ([2]; male, rat, brain / plasma, intravenous, 4 h, mean, read-out: Brain/Plasma (%), mean): 0.73
concentration at 4 h ([2]; male, rat, brain, iv, male rats (n=4), IV infusion, 4 h, mean ± SD, read-out: Brain concentration, 4 h, mean): 1740 ± 370 nM
concentration at 4 h ([2]; male, rat, brain, iv, male rats, IV infusion, 4 h, individual rats 1001-1004, read-out: Brain concentration, 4 h): 1360 nM
concentration at 4 h ([2]; male, rat, plasma (unbound), intravenous, calculated using rat plasma in vitro unbound fraction, 4 h, individual rats 1001-1004, read-out: Plasma free (unbound) concentration, 4 h): 1110 nM
concentration at 4 h ([2]; male, rat, plasma (unbound), intravenous, calculated using rat plasma in vitro unbound fraction, 4 h, mean ± SD, read-out: Plasma free (unbound) concentration, 4 h, mean): 1370 ± 260 nM
concentration at 2 h ([2]; male, rat, plasma, intravenous, male rats (n=4), IV bolus 2.0 mg/kg then IV infusion 1.2 mg/kg/h for 4 h, 2 h, mean ± SD, read-out: Plasma total concentration, 2 h, mean): 1460 ± 180 nM
concentration at 4 h ([2]; male, rat, plasma, intravenous, male rats (n=4), IV bolus 2.0 mg/kg then IV infusion 1.2 mg/kg/h for 4 h, 4 h, mean ± SD, read-out: Plasma total concentration, 4 h, mean): 2410 ± 460 nM
concentration at 2 h ([2]; male, rat, plasma, intravenous, male rats, IV bolus 2.0 mg/kg then IV infusion 1.2 mg/kg/h for 4 h, 2 h, individual rats 1001-1004, read-out: Plasma total concentration, 2 h): 1270 nM
concentration at 4 h ([2]; male, rat, plasma, intravenous, male rats, IV bolus 2.0 mg/kg then IV infusion 1.2 mg/kg/h for 4 h, 4 h, individual rats 1001-1004, read-out: Plasma total concentration, 4 h): 1950 nM
fraction unbound [3]: 0.57
Structure (SMILES): CC(C)Oc1c(-c2cn[nH]c2)ncn2nc(NC3CCOCC3)nc12 [Example 1, 8-Isopropoxy-7-(1H-pyrazol-4-yl)-N-(tetrahydro-2H-pyran-4-yl)-[1,2,4]triazolo[1,5-c]pyrimidin-2-amine]
penetration across the rat blood-brain barrier (in words) ([2]; rat, IV infusion): readily penetrates across the rat blood-brain barrier

IC50 (CDK2/Cyclin E1): ≤ 10 nM
Structure (SMILES): CC(Oc1c(-c2cn[nH]c2)ccn2nc(NC3CCOCC3)nc12)C(F)(F)F (single isomer, unassigned) [Example 3]

IC50 (CDK2/Cyclin E1): ≤ 10 nM
Structure (SMILES): CC(Oc1c(-c2cn[nH]c2)ncn2nc(NC3CCOCC3)nc12)C(F)(F)F (single isomer, unassigned) [Example 8]

IC50 (CDK2/Cyclin E1): ≤ 10 nM
Structure (SMILES): CC(Oc1c(-c2cn[nH]c2)ccn2nc(NC3CCOCC3)nc12)C(F)F (single isomer, unassigned) [Example 5]
